According to US20250163038A1, “CBL-B MODULATORS AND USES THEREOF” (Nimbus Clio, Inc., priority 2021, published 2025):

Key:
[1] = biological target: Recombinant human Cbl-b (aa 36-427) (Homo sapiens, UniProt Q13191); assay: Cbl-b Biochemical Assay (TR-FRET); settings: read-out: TR-FRET hCbl-b IC50
[2] = tested on: Jurkat (clone E6-1) cells with NFAT luciferase reporter; assay: Jurkat reporter assay (NFAT Luciferase); type: cell-based; settings: Homo sapiens; Jurkat NFAT luciferase reporter cells, anti-CD3 stimulation, 6 hr; read-out: Jurkat NFAT EC50
[3] = biological target: T1, Recombinant human c-Cbl (aa 47-435) (Homo sapiens, UniProt P22681); assay: c-Cbl Biochemical Assay (TR-FRET); settings: hc-Cbl Biochemical Assay (TR-FRET); read-out: TR-FRET hcCbl IC50
T1 sequence (P22681 47-435): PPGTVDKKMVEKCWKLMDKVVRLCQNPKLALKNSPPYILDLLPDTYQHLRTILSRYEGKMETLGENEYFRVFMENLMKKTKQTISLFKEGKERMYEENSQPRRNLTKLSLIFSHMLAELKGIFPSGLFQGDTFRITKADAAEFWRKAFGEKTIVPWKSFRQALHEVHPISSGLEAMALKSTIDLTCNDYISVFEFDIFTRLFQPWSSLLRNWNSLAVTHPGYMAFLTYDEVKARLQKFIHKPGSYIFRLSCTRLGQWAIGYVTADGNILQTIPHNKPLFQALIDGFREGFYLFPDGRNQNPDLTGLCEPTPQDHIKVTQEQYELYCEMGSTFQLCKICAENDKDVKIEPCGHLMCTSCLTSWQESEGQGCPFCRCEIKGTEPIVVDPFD

Sequence of Recombinant human Cbl-b (aa 36-427) (Q13191 36-427): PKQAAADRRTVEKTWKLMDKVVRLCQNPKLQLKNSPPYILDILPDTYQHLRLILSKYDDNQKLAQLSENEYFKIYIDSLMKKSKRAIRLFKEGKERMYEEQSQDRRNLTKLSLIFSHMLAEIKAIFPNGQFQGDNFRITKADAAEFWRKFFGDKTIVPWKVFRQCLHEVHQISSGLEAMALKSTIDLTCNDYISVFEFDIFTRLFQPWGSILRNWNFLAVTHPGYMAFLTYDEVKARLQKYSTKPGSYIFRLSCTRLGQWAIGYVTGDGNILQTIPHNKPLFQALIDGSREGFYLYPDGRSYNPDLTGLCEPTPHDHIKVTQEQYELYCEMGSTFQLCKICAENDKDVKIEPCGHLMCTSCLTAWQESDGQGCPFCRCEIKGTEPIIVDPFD

| SMILES | IC50 [1] [nM] | EC50 [2] [nM] | IC50 [3] [nM] |
| --- | --- | --- | --- |
| Cn1cnnc1-c1cc(Cl)ccc1-c1cccc(-c2nc3cc(CN[C@@H]4CCC[C@@H]4O)ccc3o2)c1 [ADL-2, (1S,2R)-2-[({2-[4′-Chloro-2′-(4-methyl-1,2,4-triazol-3-yl)-[1,1′-biphenyl]-3-yl]-1,3-benzoxazol-5-yl}methyl)amino]cyclopentan-1-ol] | < 200 | < 200 | < 200 |
| CCOc1cc(-c2ccc(F)cc2-c2nncn2C)cc(-c2nc3cc(CN[C@@H]4CCC[C@@H]4O)cc(OC)c3o2)n1 [ADM-14, (1S,2R)-2-{[(2-{6-Ethoxy-4-[4-fluoro-2-(4-methyl-1,2,4-triazol-3-yl)phenyl]pyridin-2-yl}-7-methoxy-1,3-benzoxazol-5-yl)methyl]amino}cyclopentan-1-ol] | < 200 | < 200 | < 200 |
| COCCNCc1cc(C(F)(F)F)c2oc(-c3cccc([C@]4(c5nncn5C)C[C@@H](C)C4)c3)nc2c1 [ADN-1, (2-Methoxyethyl)[(2-{3-[(1r,3s)-3-methyl-1-(4-methyl-1,2,4-triazol-3-yl)cyclobutyl]phenyl}-7-(trifluoromethyl)-1,3-benzoxazol-5-yl)methyl]amine] | < 200 | 200 to 1000 | 200 to 1000 |
| C[C@H]1CCCN(Cc2cc(C(F)(F)F)c3oc(-c4cc(-c5ccc(F)cc5-c5nncn5C)cc(C5CC5)n4)nc3c2)C1 [ADO-1, 2-{6-Cyclopropyl-4-[4-fluoro-2-(4-methyl-1,2,4-triazol-3-yl)phenyl]pyridin-2-yl}-5-{[(3S)-3-methylpiperidin-1-yl]methyl}-7-(trifluoromethyl)-1,3-benzoxazole] | < 200 | < 200 | < 200 |
| COC(=O)c1ccc2oc(-c3cc(-c4ccc(F)cc4-c4nncn4C)cc(C4CC4)n3)nc2c1 [ADP-1, Methyl 2-{6-cyclopropyl-4-[4-fluoro-2-(4-methyl-1,2,4-triazol-3-yl)phenyl]pyridin-2-yl}-1,3-benzoxazole-5-carboxylate] | 10000 to 50000 | 10000 to 50000 | 10000 to 50000 |
| Cn1cnnc1-c1cc(F)ccc1-c1cc(-c2nc3cc(CO)ccc3o2)nc(C2CC2)c1 [ADQ-1, (2-{6-Cyclopropyl-4-[4-fluoro-2-(4-methyl-1,2,4-triazol-3-yl)phenyl]pyridin-2-yl}-1,3-benzoxazol-5-yl)MeOH] | 1000 to 10000 | 10000 to 50000 | 1000 to 10000 |
| Cn1cnnc1-c1cc(F)ccc1-c1cc(-c2nc3cc(CNCC4(O)CCC4)cc(C(F)(F)F)c3o2)nc(C2CC2)c1 [ADR-1, 1-((((2-(6-Cyclopropyl-4-(4-fluoro-2-(4-methyl-4H-1,2,4-triazol-3-yl)phenyl)pyridin-2-yl)-7-(trifluoromethyl)benzo[d]oxazol-5-yl)methyl)amino)methyl)cyclobutan-1-ol] | < 200 | < 200 | < 200 |
| COCCNCc1cc(C(F)(F)F)c2oc(-c3cc(-c4ccc(F)cc4-c4nncn4C)cc(C4CC4)n3)nc2c1 [ADS-1, N-((2-(6-Cyclopropyl-4-(4-fluoro-2-(4-methyl-4H-1,2,4-triazol-3-yl)phenyl)pyridin-2-yl)-7-(trifluoromethyl)benzo[d]oxazol-5-yl)methyl)-2-methoxyethan-1-amine] | < 200 | < 200 | < 200 |
| Cn1cnnc1-c1cc(Cl)ccc1-c1cc(-c2nc3cc(CNCC4(O)CCC4)ccc3o2)nc(C2CC2)c1 [ADT-12, 1-({[(2-{4-[4-Chloro-2-(4-methyl-1,2,4-triazol-3-yl)phenyl]-6-cyclopropylpyridin-2-yl}-1,3-benzoxazol-5-yl)methyl]amino}methyl)cyclobutan-1-ol] | < 200 | < 200 | < 200 |
| Cn1cnnc1-c1cc(F)ccc1-c1cc(-c2nc3cc(CO)cc(C(F)(F)F)c3[nH]2)nc(C2CC2)c1 [ADU-2, (2-{6-Cyclopropyl-4-[4-fluoro-2-(4-methyl-1,2,4-triazol-3-yl)phenyl]pyridin-2-yl}-7-(trifluoromethyl)-1H-1,3-benzodiazol-5-yl)methanol] | < 200 | 200 to 1000 | < 200 |
| Cn1cnnc1-c1cc(F)ccc1-c1cc(-c2nc3cc(CN[C@@H]4CCC[C@@H]4O)cc(C(F)(F)F)c3[nH]2)nc(C2CC2)c1 [ADV-2, (1S,2R)-2-{[(2-{6-Cyclopropyl-4-[4-fluoro-2-(4-methyl-1,2,4-triazol-3-yl)phenyl]pyridin-2-yl}-7-(trifluoromethyl)-1H-1,3-benzodiazol-5-yl)methyl]amino}cyclopentan-1-ol] | < 200 | < 200 | < 200 |
| COCCNCc1cc(C(F)(F)F)c2[nH]c(-c3cc(-c4ccc(F)cc4-c4nncn4C)cc(C4CC4)n3)nc2c1 [ADW-1, [(2-{6-Cyclopropyl-4-[4-fluoro-2-(4-methyl-1,2,4-triazol-3-yl)phenyl]pyridin-2-yl}-7-(trifluoromethyl)-1H-1,3-benzodiazol-5-yl)methyl](2-methoxyethyl)amine] | < 200 | < 200 | < 200 |
| Cn1cnnc1-c1cc(F)ccc1-c1cc(Cl)nc(-c2nc3cc(CN[C@@H]4CCC[C@@H]4O)cc(C(F)(F)F)c3[nH]2)c1 [ADY-2, (1S,2R)-2-{[(2-{6-Chloro-4-[4-fluoro-2-(4-methyl-1,2,4-triazol-3-yl)phenyl]pyridin-2-yl}-7-(trifluoromethyl)-1H-1,3-benzodiazol-5-yl)methyl]amino}cyclopentan-1-ol] | < 200 | < 200 | < 200 |
| Cn1cnnc1[C@]1(c2cccc(-c3nc4cc(CNCC5CCC5)cc(C(F)(F)F)c4o3)c2)C[C@H](C)C1 [ADZ-1, (Cyclobutylmethyl)[(2-{3-[(1r,3s)-3-methyl-1-(4-methyl-1,2,4-triazol-3-yl)cyclobutyl]phenyl}-7-(trifluoromethyl)-1,3-benzoxazol-5-yl)methyl]amine] | < 200 | 200 to 1000 | < 200 |
| Cn1cnnc1-c1cc(F)ccc1-c1cccc(-c2nc3cc(CNCC(C)(C)O)cc(C(F)(F)F)c3o2)c1 [AE-2, 1-(((2-(4′-Fluoro-2′-(4-methyl-4H-1,2,4-triazol-3-yl)-[1,1′-biphenyl]-3-yl)-7-(trifluoromethyl)benzo[d]oxazol-5-yl)methyl)amino)-2-methylpropan-2-ol] | < 200 | 200 to 1000 | 1000 to 10000 |
| COc1cc(CN[C@@H]2CCC[C@@H]2O)cc2nc(-c3cccc([C@]4(c5nncn5C)C[C@@H](C)C4)c3)oc12 [AEC-2] | < 200 | 200 to 1000 | < 200 |
| Cn1cnnc1-c1cc(F)ccc1-c1cc(-c2nc3cc(CN[C@@H]4CCC[C@@H]4O)ccc3[nH]2)nc(C2CC2)c1 [AEF-2, (1S,2R)-2-(((2-(6-Cyclopropyl-4-(4-fluoro-2-(4-methyl-4H-1,2,4-triazol-3-yl)phenyl)pyridin-2-yl)-1H-benzo[d]imidazol-5-yl)methyl)amino)cyclopentan-1-ol] | < 200 | 200 to 1000 | < 200 |
| Cn1cnnc1-c1cc(F)ccc1-c1ccnc(-c2nc3cc(CN[C@@H]4CCC[C@@H]4O)cc(C(F)(F)F)c3o2)c1 [AEG-8, (1S,2R)-2-{[(2-{4-[4-Fluoro-2-(4-methyl-1,2,4-triazol-3-yl)phenyl]pyridin-2-yl}-7-(trifluoromethyl)-1,3-benzoxazol-5-yl)methyl]amino}cyclopentan-1-ol] | < 200 | < 200 | < 200 |
| Cn1cnnc1-c1cc(F)ccc1-c1cc(-c2nc3cc(CN[C@@H]4CCC[C@@H]4O)ccc3o2)nc(C2CC2)c1 [AEH-2, (1S,2R)-2-{[(2-{6-Cyclopropyl-4-[4-fluoro-2-(4-methyl-1,2,4-triazol-3-yl)phenyl]pyridin-2-yl}-1,3-benzoxazol-5-yl)methyl]amino}cyclopentan-1-ol] | < 200 | < 200 | < 200 |
| Cn1cnnc1-c1cc(F)ccc1-c1cc(-c2nc3cc(CNCC4CC4)ccc3o2)nc(C2CC2)c1 [AEI-1, [(2-{6-Cyclopropyl-4-[4-fluoro-2-(4-methyl-1,2,4-triazol-3-yl)phenyl]pyridin-2-yl}-1,3-benzoxazol-5-yl)methyl](cyclopropylmethyl)amine] | < 200 | 200 to 1000 | < 200 |
| CCNc1cc(-c2ccc(F)cc2-c2nncn2C)cc(-c2nc3cc(C(=O)OC)cc(C(F)(F)F)c3o2)n1 [AEK-2, Methyl 2-[6-(ethylamino)-4-[4-fluoro-2-(4-methyl-1,2,4-triazol-3-yl)-phenyl]-pyridin-2-yl]-7-(trifluoromethyl)-1,3-benzoxazole-5-carboxylate] | 1000 to 10000 | 1000 to 10000 | 1000 to 10000 |
| CCNc1cc(-c2ccc(F)cc2-c2nncn2C)cc(-c2nc3cc(CO)cc(C(F)(F)F)c3o2)n1 [AEL-1, {2-[6-(Ethylamino)-4-[4-fluoro-2-(4-methyl-1,2,4-triazol-3-yl)-phenyl]-pyridin-2-yl]-7-(trifluoromethyl)-1,3-benzoxazol-5-yl}-methanol] | 200 to 1000 | 10000 to 50000 | 200 to 1000 |
| COCCNCc1ccc2oc(-c3cc(-c4ccc(Cl)cc4-c4nncn4C)cc(C4CC4)n3)nc2c1 [AEM-1] | < 200 | < 200 | < 200 |
